Assay results: publication PMC10683014, “Amino Acids as Chelating Ligands for Platinum: Enhanced Stability in an Aqueous Environment Promoted by Biocompatible Molecules” (Journal of Medicinal Chemistry, 2023)

Tests used:
[1] = Stability in aqueous solution followed by capillary electrophoresis; assay type: physicochemical; conditions: for half-life time (τ1/2) in water: samples at 37 °C
Protocol: The stability of complexes 1–4 was tested in an aqueous solution, to investigate how the different ways of amino acid coordination impacts aqueous degradation (see Table 4). The stability of complex 5 was previously measured in a 50% methanolic solution.[4]
(§1) A solution of sodium tetraborate (final borate concentration of 50 mM) and sodium dodecyl sulfate (100 mM) was used as a background electrolyte (BGE). The pH of the BGE was adjusted to 9.3 by titration with 1 M NaOH. Every new capillary was rinsed with 1 M NaOH (45 min), water (45 min), and BGE (45 min) before the first use. The capillary was kept on a constant temperature of 25 °C, whereas the sample carousel was temperature-controlled at 37 °C. Sample injection was performed in hydrodynamic mode, applying a pressure of 50 mbar for 2 s on the inlet vial. The separation voltage was set at +20 kV. If not stated differently, a wavelength of 195 nm was employed for the DAD detector. The analytic window was evaluated by using dodecaphenone as a micellar marker and methanol (HPLC grade) as an electroosmotic flow (EOF) marker. The run time required for the analysis was estimated to be 25 min. The capillary was flushed before every run with 0.1 M NaOH (3 min), water (3 min), and BGE (5 min). Every value is calculated from at least three independent measurements. The half-lives were presented as the mean ± standard deviation. All of the samples, buffers, and washing solutions were membrane-filtered (0.22 μm pore size). All samples employed for stability experiments were prepared using benzoic acid as an internal standard (IS).

[2] = Stability in concentrated trimethylglycine (TMG) aqueous solution followed by capillary electrophoresis; assay type: physicochemical; conditions: dissolved in 50% w/v TMG, diluted to final TMG 25%; CE at 230 nm
From the text: Kadokawa et al.[35] reported that a highly concentrated solution of trimethyl glycine (TMG, also known as betaine) is able to improve the solubility of cisplatin in water without affecting the pharmacological proprieties of this drug. The mechanism behind this effect seems to lie in the hydrogen bond acceptor property of the carboxylate of TMG, which establishes hydrogen bonds with the amino groups of cisplatin. Betaine is a nontoxic compound and is highly soluble in water. On the basis of this study, we decided to test the solubility of 3 in a highly concentrated (50% w/v) TMG aqueous solution. The platinum compound was soluble enough to allow investigations with the established protocol for capillary electrophoresis. TMG has a strong absorption at low wavelengths, and therefore, a wavelength of 230 nm was chosen instead of 195 nm for recording the electropherograms with TMG.
as §1

[3] = system: MCF-7 breast cancer cell line; experiment: MTT metabolic activity (cytotoxicity) assay, MCF-7; assay type: cell-based; conditions: 72 h incubation
Protocol: (§2) In order to determine the antitumor activity of the platinum complexes, in vitro cytotoxicity tests were performed. Compounds 1–4 were tested with cisplatin as a reference on the breast cancer cell line MCF-7 and the colon carcinoma cell line HT-29. Complexes 1, 4, and 5, as well as the ligand (but-3-en-1-yl 2-acetoxybenzoate, 6) were additionally evaluated on MDA-MB-231 cells and A2780cis cells, also using cisplatin as a reference. The metabolic activity as an indicator of cytotoxicity was determined by a classical 3-(4,5-dimethylthiazol-2-yl)-2,5-diphenyltetrazoliumbromid (MTT) assay.
(§3) The cell lines A2780cis and MDA-MB-231 were cultivated in RPMI 1640 without phenol red (PAN Biotech, Aidenbach, Germany), supplemented with L-glutamine (2 mM), 100 μg/mL penicillin, 100 μg/mL streptomycin, and FCS (10%) (all from Invitrogen Corporation, Gibco, Paisley, Scotland) at 37 °C in a 5% CO2/95% air atmosphere, and passaged twice per week. To maintain resistance, A2780cis cells were incubated every second week with cisplatin (1 μM). The cell lines MCF-7 and HT-29 were grown in DMEM without phenol red (PAN Biotech, Aidenbach, Germany), containing L-glutamine, 100 μg/mL penicillin, 100 μg/mL streptomycin, sodium pyruvate ([…]) (PAN Biotech), and FCS (10%) under the same conditions as the other cell lines.
(§4) The exponentially growing cell lines were seeded at a density of 2000 cells/well for MCF-7 cells, 4000 cells/well for HT-29 cells and MDA-MB-231 cells, and 8000 cells/well for A2780cis cells, respectively, into clear flat-bottom 96-well plates in triplicates. Following 24 h of incubation for adherence at 37 °C in a humidified atmosphere (5% CO2/95% air), the compounds were added to reach the desired concentrations between 10 and 100 μM, respectively. All stock solutions were prepared in dimethylformamide at a concentration of 100 mM and were then diluted with the respective cell-culture medium to the appropriate concentrations. After another 72 h of incubation, the cellular metabolic activity was measured by employing a MTT assay. Hereby, the yellow tetrazolium salt is converted to a purple formazan salt by the functioning mitochondria. These purple crystals are then dissolved in DMSO and can be quantified via absorption measurements at 570 and 420 nm. The optical density of the particular medium was subtracted in order to exclude the unspecific staining caused by the FCS-containing medium. The values were calculated with Excel 2019 (Microsoft, Redmond, WA, USA) using nonlinear regression and the decal logarithm of the inhibitor versus variable slope equation, while the top constraint was set to 100%.

[4] = system: HT-29 colon carcinoma cell line; experiment: MTT metabolic activity (cytotoxicity) assay, HT-29; assay type: cell-based; conditions: 72 h incubation
Protocol: as §2, §3, §4

[5] = system: MDA-MB-231 breast cancer cell line; experiment: MTT metabolic activity (cytotoxicity) assay, MDA-MB-231; assay type: cell-based; conditions: for IC50: MTT, 72 h incubation; for metabolic activity (residual) on MDA-MB-231: 25 μM, without compounds set at 100%
Protocol: as §2, §3, §4

[6] = system: A2780cis ovarian carcinoma cell line (cisplatin-resistant); experiment: MTT metabolic activity (cytotoxicity) assay, A2780cis; assay type: cell-based; conditions: for IC50: MTT, 72 h incubation; for metabolic activity (residual) on A2780cis: 25 μM, without compounds set at 100%
Protocol: as §2, §3, §4

human recombinant COX-1 = target: T1, human recombinant COX-1 (Homo sapiens, UniProt P23219); experiment: COX-1 inhibition, enzyme immunoassay (COX Inhibitor Screening Assay); assay type: biochemical; conditions: 2 min incubation
T1 construct: purchased Cayman Chemicals
Protocol: The incubation time of the compounds with the respective isoenzymes was exactly 2 min. The results are presented as the mean ± SD of three independent experiments with two replicates of each experiment.

human recombinant COX-2 = target: T2, human recombinant COX-2 (Homo sapiens, UniProt P35354); experiment: COX-2 inhibition, enzyme immunoassay (COX Inhibitor Screening Assay); assay type: biochemical; conditions: 2 min incubation
T2 construct: purchased Cayman Chemicals
T2 sequence (P35354 18-604): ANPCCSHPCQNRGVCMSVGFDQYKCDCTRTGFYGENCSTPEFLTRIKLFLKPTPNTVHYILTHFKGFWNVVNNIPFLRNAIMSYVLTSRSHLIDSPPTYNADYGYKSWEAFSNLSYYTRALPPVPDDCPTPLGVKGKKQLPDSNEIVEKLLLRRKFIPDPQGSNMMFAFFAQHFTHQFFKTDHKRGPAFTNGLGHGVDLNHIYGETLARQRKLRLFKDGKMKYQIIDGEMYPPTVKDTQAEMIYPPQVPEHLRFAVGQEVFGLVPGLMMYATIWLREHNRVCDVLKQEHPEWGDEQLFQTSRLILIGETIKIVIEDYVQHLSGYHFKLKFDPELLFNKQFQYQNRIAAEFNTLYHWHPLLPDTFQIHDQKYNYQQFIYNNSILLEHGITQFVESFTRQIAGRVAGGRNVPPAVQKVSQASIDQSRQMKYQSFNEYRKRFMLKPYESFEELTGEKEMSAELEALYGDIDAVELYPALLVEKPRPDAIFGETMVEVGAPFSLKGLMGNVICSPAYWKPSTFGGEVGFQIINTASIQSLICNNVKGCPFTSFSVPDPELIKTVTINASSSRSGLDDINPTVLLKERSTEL
Protocol: Metal complexes containing an ASA moiety have been reported as inhibitors for COX-1/-2 previously.[4],[14],[40]−[44] […] Hereby, the isolated enzymes were treated with final concentrations of 10 and 25 μM of substances 1, 4, 5, and 6.
Inhibition of the isolated human recombinant COX-1 and COX-2 isoenzymes by the platinum complexes (10 and 25 μM) was evaluated using an enzyme immunoassay (EIA) (COX Inhibitor Screening Assay, Cayman Chemicals, Ann Arbor, Mi, USA) following the manufacturer’s protocol. The incubation time of the compounds with the respective isoenzymes was exactly 2 min. The results are presented as the mean ± SD of three independent experiments with two replicates of each experiment. The untreated control was set at 0% inhibition of the COX activity.

[7] = Lipophilicity estimate from MEKC experiments (buffer/micelle partition); assay type: physicochemical; conditions: three independent experiments (one for 5 and 6)
Protocol: The lipophilicity of the tested compounds was estimated on the basis of MEKC experiments similar to Herbert and Dorsey[37] (see Table 7). The values estimated in this way were compared with theoretical values obtained from two different methods: for platinum complexes, a previously established method[38] was used, while for the organic ligand, the Osiris Property Explorer[39] was employed.
as §1

[8] = Solubility in water (qualitative observation); assay type: physicochemical
Protocol: Complex 1 was synthesized using the procedure reported by Fujita et al.,[20] and cubic bright-yellow crystals were obtained within hours. […] When a slightly lower concentration was used (0.4 mmol of platinum precursor instead of 0.5 mmol), keeping the amount of solvent constant, no crystallization occurred within a short time (3–4 h). However, some colorless needle-shaped crystals formed after an extended period of time (5–6 weeks). The crystals obtained from both conditions were analyzed via single-crystal X-ray diffractometry.
However, the release of olefin in an aqueous environment was detected to an extent of about 20% after 72 h. The chelating amino acid enhances the stability of complex 4 (>72 h) in comparison to compound 5 (69.6 ± 3.0 h).

[9] = cited from earlier work

T1 sequence (P23219 24-599): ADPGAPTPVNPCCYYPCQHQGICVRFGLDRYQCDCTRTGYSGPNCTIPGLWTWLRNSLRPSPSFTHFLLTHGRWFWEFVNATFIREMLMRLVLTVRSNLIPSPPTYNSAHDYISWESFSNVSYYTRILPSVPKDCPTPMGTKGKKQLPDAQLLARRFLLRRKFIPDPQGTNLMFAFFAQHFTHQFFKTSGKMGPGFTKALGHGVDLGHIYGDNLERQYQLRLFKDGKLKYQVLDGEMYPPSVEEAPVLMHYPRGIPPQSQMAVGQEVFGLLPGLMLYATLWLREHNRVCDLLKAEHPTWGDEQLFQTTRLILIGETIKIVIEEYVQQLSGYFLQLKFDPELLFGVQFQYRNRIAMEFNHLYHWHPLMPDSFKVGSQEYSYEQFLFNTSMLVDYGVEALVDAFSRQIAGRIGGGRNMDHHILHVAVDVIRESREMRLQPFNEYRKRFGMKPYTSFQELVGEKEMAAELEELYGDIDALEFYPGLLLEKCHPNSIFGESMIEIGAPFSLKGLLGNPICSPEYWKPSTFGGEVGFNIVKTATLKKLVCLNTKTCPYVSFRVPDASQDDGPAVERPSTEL

half-life time (τ1/2) in TMG solution [2] [h] | coefficient of partition between buffer and micelles (k′), average [7] | Compound | IC50 [3] [µM] | IC50 [4] [µM] | IC50 [5] [µM] | IC50 [6] [µM] | % Inhibition COX-1 (human recombinant COX-1; 10 μM) [%] | % Inhibition COX-1 (human recombinant COX-1; 25 μM) [%] | % Inhibition COX-2 (human recombinant COX-2; 10 μM) [%] | % Inhibition COX-2 (human recombinant COX-2; 25 μM) [%] | also measured
24.3 ± 2.6 | 0.629 ± 0.009 | C=C.C[C@H](N)C(=O)[O][Pt][Cl] [1a, (Ethylene,N-trans)(L-alaninato-N,O)chlorido(η^2-ethene)platinate(II)] | > 100 | > 100 | > 50 | > 50 | 43.67 ± 3.87 | 73.82 ± 5.60 | 27.23 | 52.36 ± 4.02 | half-life time (τ1/2) in water ([1]; CE): >72 h; solubility in water (in words) [8]: moderately soluble in water
0.77 ± 0.08 | 3.099 ± 0.149 | C=C.NCCC(=O)[O][Pt][Cl] [2b, (Ethylene,O-trans)(β-alaninato-N,O)chlorido(η^2-ethene)platinate(II)] | > 100 | > 100 | – | – | – | – | – | – | half-life time (τ1/2) in water ([1]; CE): 1.7 ± 0.2 h
– | – | CC(=O)Oc1ccccc1C(=O)O [ASA, acetylsalicylic acid, reference compound] | – | – | – | – | – | – | – | – | inhibition at 10 µM (human recombinant COX-1; 10 μM): 17.3%; inhibition at 10 µM (human recombinant COX-2; 10 μM): 9.33%
– | – | C=C.[Cl-].[Cl-].[Cl-].[K+].[Pt+2] [ZS, potassium trichloro(ethylene)platinate(II), reference compound] | – | – | – | – | 90.83 | – | 8.30 | – | time to quantitative conversion to the trans-aquo complex after dissolution in water ([9]; water): ≤ 2 min
– | – | N.N.[Cl][Pt][Cl] [cisplatin, reference compound] | 29 ± 4.28 | 13.9 ± 5.16 | 13.3 ± 0.87 | 14.8 ± 1.23 | – | – | – | – | metabolic activity (residual) on MDA-MB-231 [5]: 8.71%; metabolic activity (residual) on A2780cis [6]: 4.71%
12.0 ± 3.0 | 2.392 ± 0.185 | C=C.NC(Cc1c[nH]cn1)C(=O)O.[Cl][Pt] [compound 3, (L-Histidinato-N,N)chlorido(η^2-ethene)platinate(II)] | > 100 | > 100 | – | – | – | – | – | – | –
– | – | C=CCCOC(=O)c1ccccc1OC(C)=O.[Cl][Pt-]([Cl])[Cl].[K+] [compound 5, potassium {trichlorido[η^2-(but-3-en-1-yl)-2-acetoxybenzoate]platinate(II)}] | – | – | > 50 | > 50 | 67.84 ± 10.57 | 80.49 ± 11.10 | 39.56 | 63.10 ± 8.07 | half-life in 50% methanolic solution ([9]; 50% methanolic solution, previously measured): 69.6 ± 3.0 h
– | – | C=CCCOC(=O)c1ccccc1OC(C)=O [compound 6, but-3-en-1-yl 2-acetoxybenzoate] | – | – | – | – | – | – | – | – | IC50 ([5]; Homo sapiens, MDA-MB-231): > 50 µM; IC50 ([6]; A2780cis): > 50 µM; inhibition at 10 µM (human recombinant COX-1; 10 μM): 23.7 ± 9.86%; inhibition at 25 µM (human recombinant COX-1; 25 μM): 16.4 ± 8.64%; inhibition at 10 µM (human recombinant COX-2; 10 μM): 15.7 ± 14.8%; inhibition at 25 µM (human recombinant COX-2; 25 μM): 16.9 ± 17.2%

Compound | half-life time (τ1/2) in TMG solution [2] [h] | coefficient of partition between buffer and micelles (k′), average [7] | IC50 [3] [µM] | IC50 [4] [µM] | IC50 [5] [µM] | IC50 [6] [µM] | % Inhibition COX-1 (human recombinant COX-1; 10 μM) [%] | % Inhibition COX-1 (human recombinant COX-1; 25 μM) [%] | % Inhibition COX-2 (human recombinant COX-2; 10 μM) [%] | % Inhibition COX-2 (human recombinant COX-2; 25 μM) [%] | also measured
(Ethylene,N-trans)(L-alaninato-N,O)chlorido(η^2-(but-3-en-1-yl)-2-acetoxybenzoate)platinate(II) [compound 4] | >72 | 3.383 ± 0.016 | 22.5 ± 3.23 | 20.63 ± 0.11 | 15.4 ± 0.74 | 22.5 ± 0.97 | 56.51 ± 0.72 | 65.95 ± 4.01 | 20.04 | 60.50 ± 7.63 | half-life time (τ1/2) in aqueous environment, 50% methanol solution ([1]; 50% methanol solution (footnote a of Table 4), CE): >72 ^a h; release of olefin in aqueous environment ([1]; after 72 h): about 20%; metabolic activity (residual) on MDA-MB-231 [5]: 7.71%; metabolic activity (residual) on A2780cis [6]: 33.13%; solubility in water (in words) [8]: better solubility in water
